# Laboratory results from patent US6353019B1, “Macrocyclic lactones, compositions, and methods of use” (United States of America as represented by the Department …, priority 1997, dated 2002).
# Assays:
# [1] = tested on: U251; assay: NCI 60 cell-line screen, U251 (Brain); assay type: cell-based, human; settings: averaged, quadruplicate testing, 48 h, SRB
# Experimental: (§1) The NCI screen consists of a panel of 60 different human tumor cell lines against which compounds are tested over a defined range of concentrations to determine the relative degree of growth inhibition or cytotoxicity against each cell line. The design and operation of the screen is such that for each compound tested, both the absolute and relative sensitivities of individual cell lines comprising the screen are sufficiently reproducible that a characteristic profile or “fingerprint” of cellular response is generated. Compounds which are active in the NCI screen show pronounced differential tumor growth-inhibitory and/or cytotoxic effects to the diverse cell lines comprising the 60 cell-line panel. The degree of differential response between the most and least sensitive lines typically may be relatively small (e.g., 2- to 10-fold), or occasionally as great as 3-4 orders of magnitude. […]
# (§2) In the screening assay, each agent is tested over a broad concentration range against every cell line in the panel. […] Test compounds are evaluated at five 10-fold dilutions. […] Optical densities are measured on automated plate readers, followed by computerized data acquisition, processing, storage, and availability for display and analysis. […]
# [2] = tested on: HOP-92; assay: NCI 60 cell-line screen, HOP-92 (Lung); assay type: cell-based, human; settings: averaged, quadruplicate testing, 48 h, SRB
# Experimental: as §1, §2
# [3] = tested on: SR; assay: NCI 60 cell-line screen, SR (Leukemia); assay type: cell-based, human; settings: averaged, quadruplicate testing, 48 h, SRB
# Experimental: as §1, §2
# [4] = tested on: A549/ATCC; assay: NCI 60 cell-line screen, A549/ATCC (Lung); assay type: cell-based, human; settings: averaged, quadruplicate testing, 48 h, SRB
# Experimental: as §1, §2
# [5] = tested on: NCI-H522; assay: NCI 60 cell-line screen, NCI-H522 (Lung); assay type: cell-based, human; settings: averaged, quadruplicate testing, 48 h, SRB
# Experimental: as §1, §2
# [6] = tested on: NCI-H23; assay: NCI 60 cell-line screen, NCI-H23 (Lung); assay type: cell-based, human; settings: averaged, quadruplicate testing, 48 h, SRB
# Experimental: as §1, §2
# [7] = tested on: SW-620; assay: NCI 60 cell-line screen, SW-620 (Colon); assay type: cell-based, human; settings: averaged, quadruplicate testing, 48 h, SRB
# Experimental: as §1, §2
# [8] = tested on: RXF-393; assay: NCI 60 cell-line screen, RXF-393 (Kidney); assay type: cell-based, human; settings: averaged, quadruplicate testing, 48 h, SRB
# Experimental: as §1, §2
# [9] = tested on: A498; assay: NCI 60 cell-line screen, A498 (Kidney); assay type: cell-based, human; settings: averaged, quadruplicate testing, 48 h, SRB
# Experimental: as §1, §2
# [10] = tested on: OVCAR-5; assay: NCI 60 cell-line screen, OVCAR-5 (Ovary); assay type: cell-based, human; settings: averaged, quadruplicate testing, 48 h, SRB
# Experimental: as §1, §2
# [11] = tested on: HOP-62; assay: NCI 60 cell-line screen, HOP-62 (Lung); assay type: cell-based, human; settings: averaged, quadruplicate testing, 48 h, SRB
# Experimental: as §1, §2
# [12] = tested on: SK-OV-3; assay: NCI 60 cell-line screen, SK-OV-3 (Ovary); assay type: cell-based, human; settings: averaged, quadruplicate testing, 48 h, SRB
# Experimental: as §1, §2
# [13] = tested on: HL-60-TB; assay: NCI 60 cell-line screen, HL-60-TB (Leukemia); assay type: cell-based, human; settings: averaged, quadruplicate testing, 48 h, SRB
# Experimental: as §1, §2
# [14] = tested on: MDA-N; assay: NCI 60 cell-line screen, MDA-N (Breast); assay type: cell-based, human; settings: averaged, quadruplicate testing, 48 h, SRB
# Experimental: as §1, §2
# [15] = tested on: T-47D; assay: NCI 60 cell-line screen, T-47D (Breast); assay type: cell-based, human; settings: averaged, quadruplicate testing, 48 h, SRB
# Experimental: as §1, §2
# [16] = tested on: SF-295; assay: NCI 60 cell-line screen, SF-295 (Brain); assay type: cell-based, human; settings: averaged, quadruplicate testing, 48 h, SRB
# Experimental: as §1, §2
# [17] = tested on: MDA-MB-435; assay: NCI 60 cell-line screen, MDA-MB-435 (Breast); assay type: cell-based, human; settings: averaged, quadruplicate testing, 48 h, SRB
# Experimental: as §1, §2
# [18] = tested on: TK-10; assay: NCI 60 cell-line screen, TK-10 (Kidney); assay type: cell-based, human; settings: averaged, quadruplicate testing, 48 h, SRB
# Experimental: as §1, §2
# [19] = tested on: HS-578T; assay: NCI 60 cell-line screen, HS-578T (Breast); assay type: cell-based, human; settings: averaged, quadruplicate testing, 48 h, SRB
# Experimental: as §1, §2
# [20] = tested on: SK-MEL-2; assay: NCI 60 cell-line screen, SK-MEL-2 (Melanoma); assay type: cell-based, human; settings: averaged, quadruplicate testing, 48 h, SRB
# Experimental: as §1, §2
# [21] = tested on: NCI-H460; assay: NCI 60 cell-line screen, NCI-H460 (Lung); assay type: cell-based, human; settings: averaged, quadruplicate testing, 48 h, SRB
# Experimental: as §1, §2
# [22] = tested on: panel of 60 different human tumor cell lines; assay: NCI 60 cell-line human tumor screen, whole panel; assay type: cell-based
# Experimental: as §1, §2
# Three additional numbers are printed at the base of each of the three respective mean-graphs. […] The MG-MID is the calculated mean panel GI50, TGI, or LC50. […]
# [23] = tested on: BT-549; assay: NCI 60 cell-line screen, BT-549 (Breast); assay type: cell-based, human; settings: averaged, quadruplicate testing, 48 h, SRB
# Experimental: as §1, §2
# [24] = tested on: COLO 205; assay: NCI 60 cell-line screen, COLO 205 (Colon); assay type: cell-based, human; settings: averaged, quadruplicate testing, 48 h, SRB
# Experimental: as §1, §2
# [25] = tested on: HCC-2998; assay: NCI 60 cell-line screen, HCC-2998 (Colon); assay type: cell-based, human; settings: averaged, quadruplicate testing, 48 h, SRB
# Experimental: as §1, §2
# [26] = tested on: 786-0; assay: NCI 60 cell-line screen, 786-0 (Kidney); assay type: cell-based, human; settings: averaged, quadruplicate testing, 48 h, SRB
# Experimental: as §1, §2
# [27] = tested on: SK-MEL-28; assay: NCI 60 cell-line screen, SK-MEL-28 (Melanoma); assay type: cell-based, human; settings: averaged, quadruplicate testing, 48 h, SRB
# Experimental: as §1, §2
# [28] = tested on: DU-145; assay: NCI 60 cell-line screen, DU-145 (Prostate); assay type: cell-based, human; settings: averaged, quadruplicate testing, 48 h, SRB
# Experimental: as §1, §2
# [29] = tested on: CCRF-CEM; assay: NCI 60 cell-line screen, CCRF-CEM (Leukemia); assay type: cell-based, human; settings: averaged, quadruplicate testing, 48 h, SRB
# Experimental: as §1, §2
# [30] = tested on: HCT-15; assay: NCI 60 cell-line screen, HCT-15 (Colon); assay type: cell-based, human; settings: averaged, quadruplicate testing, 48 h, SRB
# Experimental: as §1, §2
substance,measurement,setting,value
salicylihalamide A,negative log10 GI50,[1],7.57
same,negative log10 GI50,[2],7.77
same,negative log10 GI50,[3],8.44
same,negative log10 GI50,[4],8.54
same,negative log10 GI50,[5],7.26
same,negative log10 GI50,[6],6.55
same,negative log10 GI50,[7],7.54
same,negative log10 GI50,[8],9.07
same,negative log10 GI50,[9],6.55
same,negative log10 GI50,[10],8.11
same,negative log10 GI50,[11],8.38
same,negative log10 GI50,[12],5.54
same,negative log10 GI50,[13],9.04
same,negative log10 GI50,[14],8.00
same,negative log10 GI50,[15],8.34
same,negative log10 GI50,[16],8.96
same,negative log10 GI50,[17],7.82
same,negative log10 GI50,[18],5.74
same,negative log10 GI50,[19],5.85
same,negative log10 GI50,[20],7.47
same,negative log10 GI50,[21],9.01
same,GI50,"[22]; mean over the NCI 60 cell-line panel, read-out: mean panel GI50 concentration",~15 nM
same,range of differential sensitivity among the 60 cell-lines,[22]; most vs least sensitive lines of the NCI panel,greater than or equal to 10^3
same,negative log10 GI50,[23],9.30
same,negative log10 GI50,[24],8.07
same,negative log10 GI50,[25],6.74
same,negative log10 GI50,[26],7.92
same,negative log10 GI50,[27],7.00
same,negative log10 GI50,[28],8.26
same,negative log10 GI50,[29],7.89
same,negative log10 GI50,[30],8.44
